According to publication PMC9181887, “In Vitro Antithrombotic, Hematological Toxicity, and Inhibitor Studies of Protocatechuic, Isovanillic, and p-Hydroxybenzoic Acids from Maclura tricuspidata (Carr.) Bur” (Molecules, 2022):
Like-named read-outs stand apart in the source and are kept apart here.

What was measured:
[1] = molecular target: T1, human FXa (Homo sapiens, UniProt P00742); assay: FXa activity and kinetic/inhibitor assay; assay type: biochemical; settings: for FXa activity: 1–20 μg, vs control, p < 0.05; for IC50 / Kik/Kiv / Kcat / Vmax / Ki: FXa; for inhibition type against FXa: from Kik/Kiv ratio and Lineweaver–Burk plots
T1 construct: purchased Sigma-Aldrich
T1 sequence (P00742 235-488 limits assumed): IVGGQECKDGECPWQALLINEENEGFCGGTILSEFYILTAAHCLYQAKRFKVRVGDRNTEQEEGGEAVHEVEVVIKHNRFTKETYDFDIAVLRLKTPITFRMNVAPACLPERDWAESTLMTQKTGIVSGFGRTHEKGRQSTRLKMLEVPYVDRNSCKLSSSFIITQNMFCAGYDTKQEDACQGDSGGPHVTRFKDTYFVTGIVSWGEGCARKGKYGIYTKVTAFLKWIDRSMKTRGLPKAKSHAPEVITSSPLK
T1 sequence (P00742 41-179 limits assumed): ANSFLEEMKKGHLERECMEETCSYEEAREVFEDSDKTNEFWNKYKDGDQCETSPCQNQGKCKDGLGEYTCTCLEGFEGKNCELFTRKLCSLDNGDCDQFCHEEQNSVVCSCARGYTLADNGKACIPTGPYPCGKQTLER
Method: (§1) To determine the thrombin activity, various concentrations of compounds were treated with 1 U human thrombin in 100 μL of 20 mM Tris-HCl, as previously described. The reaction solutions were incubated for 15 min at 37 °C. After the incubation, 1 mM chromogenic substrate for thrombin (S-2238, HD-Phe-Pip-Arg-p-nitroanilide) was added and incubated for 1 h at 37 °C. Absorbance was measured at 405 nm to determine the enzymatic activity. To determine FXa activity, various concentrations of the compounds were mixed with 1 U human FXa in 20 mM Tris-HCl (pH 7.4) in volume of 100 μL, followed by incubation for 15 min at 37 °C. After adding 1 mM N-benzoyl-Ile-Glu-Gly-Arg-p-nitroanilide, a highly specific chromogenic peptide substrate for FXa, the reaction solutions were incubated for 1 h at 37 °C. The residual activity of FXa was measured at 405 nm and is presented as a percentage of inhibition. To investigate FXIIIa activity, various concentrations of the compounds were mixed with 1 U human FXIIIa in 20 mM Tris-HCl (pH 7.4) in a volume of 100 μL, followed by, incubation for 15 min at 37 °C as previously described. The residual activity of FXIIIa was measured using casein and fibrinogen-HRP, according to the manufacturer’s instructions, and was presented as a percentage of inhibition. The negative control was generated by treatment with only thrombin, FXa, or FXIIIa without treatment with any compound.
(§2) Kinetic assays were performed using PA, IVA, and 4-HA for procoagulant proteases (thrombin and FXa) and fibrinoligase (FXIIIa). The kinetic constants were calculated using Lineweaver–Burk plots based on the initial reaction rates with different concentrations (0.1, 0.5, 1, and 2 mM) of each substrate for thrombin, FXa, and FXIIIa treated with or without the compounds (0.065, 0.13, 0.33, 0.65, and 1.30 mM [1–20 μg]) in a total volume of 100 μL. The Michaelis–Menten constant (Km) and maximal velocity (Vmax) were calculated from the x and y intercepts, respectively. […] The median inhibitory concentration (IC50) was defined as the concentration required to reach a 50% reduction in the activity of the three target factors. The Kik and Kiv inhibition constants were calculated using a previously described method. The inhibition type of the compounds against the three target factors was evaluated according to a previously described inhibition type definition.

[2] = molecular target: T2, human thrombin (Homo sapiens, UniProt P00734); assay: Thrombin activity and kinetic/inhibitor assay; assay type: biochemical; settings: for inhibition type against thrombin: from Kik/Kiv ratio and Lineweaver–Burk plots; for activity of thrombin: highest concentration of each compound, p < 0.01; for IC50 / Ki / Kik/Kiv / Kcat / Vmax: thrombin; for Vmax value of thrombin decreased by, fold of non-treated: vs non-treated 0.381 ± 0.011 mU/min; for Vmax value of thrombin decreased by, fold of non-treated / Km value of thrombin reduced by, fold of non-treated / Kcat values of thrombin reduced by, fold of non-treated: compound 0.065–1.3 mM; for Km value of thrombin reduced by, fold of non-treated: vs non-treated 0.566 ± 0.025 mM; for Kcat values of thrombin reduced by, fold of non-treated: vs non-treated 109.87 ± 3.16 s^−1
T2 construct: purchased Sigma-Aldrich
Method: as §1, §2

[3] = tested on: mouse blood clots; assay: In vitro antithrombotic activity assay using blood clot; settings: vs NC group treated with saline, p < 0.01, 1 h
Method: To determine the in vitro antithrombotic activity, a blood clot assay was performed based on a previously described method. All experimental procedures were performed in accordance with the related ethical regulations of Gwangju University, and were approved by the Institutional Animal Care and Use Committee of Jeonnam Institute of Natural Resources Research, Jangheung, South Korea (2021-JINR2001). Fresh mouse blood clots (40 μg) treated with the compounds, 10–20 IU u-PA as PC 1–2, or saline as NC were incubated for 1 h. After incubation, blood clot degradation in each group was analyzed using absorbance values at a wavelength of 410 nm. The maximum absorbance wavelength was determined by measuring the absorption spectra in the wavelength range of 340–850 nm.

[4] = tested on: thrombin-activated platelets; assay: ATP release assay; assay type: cell-based; settings: 10–100 μg, vs thrombin group, p < 0.05; except 10 μg of 4-HA (p = 0.915)
Method: Figure 7 Effect of PA, IVA, and 4-HA on granule secretion. Aliquots of washed platelets pre-treated with or without the compounds for 5 min were stimulated with 0.25 U/mL thrombin at 37 °C for 5 min. After stimulation, the platelets were centrifuged, and the supernatants were collected. Using these supernatants, ATP (A) or serotonin (B) release was determined according to the manufacturer’s instructions. Each value is the mean ± SD of triplicate measurements. # p < 0.01, compared to each control groups. * p < 0.05 and ** p < 0.01, compared to only thrombin-treated control groups. Thrombin, thrombin treated only; PA10-100, 10–100 μg of PA treated; IVA10-100, 10–100 μg of IVA treated; 4-HA10-100, 10–100 μg of 4-HA treated.
Aliquots of washed platelets (250 × 10^6/mL) pre-treated with the compounds for 5 min were activated with 0.25 U/mL of thrombin for 5 min at 37 °C, according to a previously described method, with slight modifications. After activation, the supernatant from centrifuged platelets was used. ATP release was evaluated using an ATP assay kit (Biomedical Research Service Center, Buffalo, NY, USA), according to the manufacturer’s instructions.

[5] = tested on: fibrin clot network (Alexa Fluor 488 fibrinogen, thrombin); assay: Fibrin clot assay using a fluorescence microscope; assay type: biochemical, human; settings: fluorescent fibrinogen and thrombin, 30 min
Method: Fibrin clots were prepared by mixing 2.6 μM human fibrinogen and 0.4 μM Alexa Fluor 488 fibrinogen with 0.25 U/mL of thrombin in 20 mM Tris-HCl (pH 7.4) in a glass-bottom dish and treated with compounds or 20 IU u-PA as previously described. The mixtures were incubated for 30 min at 37 °C in the dark. Fibrin clots were observed under a fluorescence microscope (Nikon, Eclipse TE 2000-U, Kyoto, Japan) and photographed. Fibrin clots pre-treated with saline (control group) or […] (positive control group). Quantitative analysis of the fluorescent fibrin clots was performed using the ImageJ 1.46 b image analysis software.

[6] = read-out: Kiv (inhibition constant using Vmax)

FXa activity [1]	IC50 [1] [mM]	Kik/Kiv [1]	Kcat ([1]; compound 0.065 mM (1 μg)) [s⁻¹]	Vmax ([1]; compound 0.065 mM (1 μg)) [mU/min]	Kcat ([1]; compound 0.13 mM (2 μg)) [s⁻¹]	Vmax ([1]; compound 0.13 mM (2 μg)) [mU/min]	Kcat ([1]; compound 0.325 mM (5 μg)) [s⁻¹]	Vmax ([1]; compound 0.325 mM (5 μg)) [mU/min]	Kcat ([1]; compound 0.65 mM (10 μg)) [s⁻¹]	Vmax ([1]; compound 0.65 mM (10 μg)) [mU/min]	Kcat ([1]; compound 1.3 mM (20 μg)) [s⁻¹]	Vmax ([1]; compound 1.3 mM (20 μg)) [mU/min]	Ki ([1]; read-out: Ki) [mM]	Ki [1, 6] [mM]	inhibition type against FXa [1]	inhibition type against thrombin [2]	activity of thrombin [2]	IC50 [2] [mM]	Ki [2] [mM]	SMILES	other results
significant reductions	4.21	5.6	24.20 ± 0.27	0.66 ± 0.04	22.34 ± 0.41	0.61 ± 0.02	22.23 ± 0.35	0.60 ± 0.03	20.67 ± 0.32	0.56 ± 0.03	18.56 ± 0.30	0.50 ± 0.04	4.19	0.075	non-competitive inhibition	uncompetitive inhibition type	significantly decreased	0.925	0.923	COc1ccc(C(=O)O)cc1O [IVA, isovanillic acid]	Kik/Kiv [2]: 1.1; Kcat ([2]; compound 0.065 mM (1 μg)): 87.72 ± 1.32 s⁻¹; Vmax ([2]; compound 0.065 mM (1 μg)): 0.304 ± 0.013 mU/min; Kcat ([2]; compound 0.13 mM (2 μg)): 94.13 ± 2.08 s⁻¹; Vmax ([2]; compound 0.13 mM (2 μg)): 0.326 ± 0.018 mU/min; Kcat ([2]; compound 0.325 mM (5 μg)): 67.14 ± 0.93 s⁻¹; Vmax ([2]; compound 0.325 mM (5 μg)): 0.233 ± 0.010 mU/min; Kcat ([2]; compound 0.65 mM (10 μg)): 54.42 ± 0.81 s⁻¹; Vmax ([2]; compound 0.65 mM (10 μg)): 0.189 ± 0.007 mU/min; Kcat ([2]; compound 1.3 mM (20 μg)): 48.31 ± 1.05 s⁻¹; Vmax ([2]; compound 1.3 mM (20 μg)): 0.167 ± 0.008 mU/min; Vmax value of thrombin decreased by, fold of non-treated [2]: 0.44–0.86 fold; Km value of thrombin reduced by, fold of non-treated [2]: 0.52–0.93 fold; Kcat values of thrombin reduced by, fold of non-treated [2]: 0.43–0.86 fold; blood clot degradation [3]: significantly degraded; thrombin-stimulated ATP secretion levels [4]: significantly decreased; fibrin network structure / clot density [5]: morphological changes in the network and reduced fibrin clot density
significant reductions	4.01	5.3	22.14 ± 0.22	0.60 ± 0.03	21.77 ± 0.26	0.59 ± 0.02	21.79 ± 0.44	0.59 ± 0.04	21.18 ± 0.42	0.57 ± 0.02	20.22 ± 0.37	0.55 ± 0.02	3.99	0.109	non-competitive inhibition	uncompetitive inhibition type	significantly decreased	1.7	1.7	O=C(O)c1ccc(O)cc1 [4-HA, 4-hydroxybenzoic acid]	Kik/Kiv [2]: 1.2; Kcat ([2]; compound 0.065 mM (1 μg)): 100.59 ± 1.41 s⁻¹; Vmax ([2]; compound 0.065 mM (1 μg)): 0.349 ± 0.013 mU/min; Kcat ([2]; compound 0.13 mM (2 μg)): 98.38 ± 1.24 s⁻¹; Vmax ([2]; compound 0.13 mM (2 μg)): 0.341 ± 0.015 mU/min; Kcat ([2]; compound 0.325 mM (5 μg)): 91.57 ± 0.98 s⁻¹; Vmax ([2]; compound 0.325 mM (5 μg)): 0.317 ± 0.016 mU/min; Kcat ([2]; compound 0.65 mM (10 μg)): 89.25 ± 0.77 s⁻¹; Vmax ([2]; compound 0.65 mM (10 μg)): 0.309 ± 0.020 mU/min; Kcat ([2]; compound 1.3 mM (20 μg)): 78.83 ± 1.01 s⁻¹; Vmax ([2]; compound 1.3 mM (20 μg)): 0.273 ± 0.013 mU/min; Vmax value of thrombin decreased by, fold of non-treated [2]: 0.72–0.92 fold; Km value of thrombin reduced by, fold of non-treated [2]: 0.71–0.86 fold; Kcat values of thrombin reduced by, fold of non-treated [2]: 0.72–0.92 fold; blood clot degradation [3]: significantly degraded; thrombin-stimulated ATP secretion levels [4]: significantly decreased; fibrin network structure / clot density [5]: morphological changes in the network and reduced fibrin clot density

SMILES	FXa activity [1]	IC50 [1] [mM]	Kik/Kiv [1]	Kcat ([1]; compound 0.065 mM (1 μg)) [s⁻¹]	Vmax ([1]; compound 0.065 mM (1 μg)) [mU/min]	Kcat ([1]; compound 0.13 mM (2 μg)) [s⁻¹]	Vmax ([1]; compound 0.13 mM (2 μg)) [mU/min]	Kcat ([1]; compound 0.325 mM (5 μg)) [s⁻¹]	Vmax ([1]; compound 0.325 mM (5 μg)) [mU/min]	Kcat ([1]; compound 0.65 mM (10 μg)) [s⁻¹]	Vmax ([1]; compound 0.65 mM (10 μg)) [mU/min]	Kcat ([1]; compound 1.3 mM (20 μg)) [s⁻¹]	Vmax ([1]; compound 1.3 mM (20 μg)) [mU/min]	Ki ([1]; read-out: Ki) [mM]	Ki [1, 6] [mM]	inhibition type against FXa [1]	inhibition type against thrombin [2]	activity of thrombin [2]	IC50 [2] [mM]	Ki [2] [mM]	other results
O=C(O)c1ccc(O)c(O)c1 [PA, protocatechuic acid]	significant reductions	3.09	1.6	21.36 ± 0.54	0.58 ± 0.03	17.35 ± 0.48	0.47 ± 0.02	14.67 ± 0.25	0.40 ± 0.02	12.09 ± 0.29	0.33 ± 0.01	11.62 ± 0.31	0.32 ± 0.01	3.07	0.023	uncompetitive inhibition type	mixed inhibition type	significantly decreased	1.11	1.11	Kik/Kiv [2]: 125.4; Kcat ([2]; compound 0.065 mM (1 μg)): 101.67 ± 1.44 s⁻¹; Vmax ([2]; compound 0.065 mM (1 μg)): 0.352 ± 0.019 mU/min; Kcat ([2]; compound 0.13 mM (2 μg)): 93.29 ± 1.60 s⁻¹; Vmax ([2]; compound 0.13 mM (2 μg)): 0.323 ± 0.021 mU/min; Kcat ([2]; compound 0.325 mM (5 μg)): 85.00 ± 2.13 s⁻¹; Vmax ([2]; compound 0.325 mM (5 μg)): 0.295 ± 0.015 mU/min; Kcat ([2]; compound 0.65 mM (10 μg)): 71.98 ± 1.95 s⁻¹; Vmax ([2]; compound 0.65 mM (10 μg)): 0.249 ± 0.009 mU/min; Kcat ([2]; compound 1.3 mM (20 μg)): 69.08 ± 1.15 s⁻¹; Vmax ([2]; compound 1.3 mM (20 μg)): 0.239 ± 0.008 mU/min; Vmax value of thrombin decreased by, fold of non-treated [2]: 0.65–0.92 fold; Kcat values of thrombin reduced by, fold of non-treated [2]: 0.63–0.93 fold; blood clot degradation [3]: significantly degraded; thrombin-stimulated ATP secretion levels [4]: significantly decreased; fibrin network structure / clot density [5]: morphological changes in the network and reduced fibrin clot density
